Experimental data from patent US6008046A, “Drug and pesticide screening” (priority 1993, dated 1999).
Counter-ions that a name gives are not always drawn. Like-named read-outs stand apart in the source and are kept apart here.

How the values were obtained:
[1] = target: normal GABA receptor (wild-type Rdl, cDNA 14.1) (Drosophila melanogaster, UniProt P25123, I283V); test: cell-based; conditions: for Reduction in GABA response (mean (s.d.)): xenopus oocytes
Method: (§1) The cloning of cDNA's from the GABAA locus allows for functional expression of mRNA derived from this and other subunit cDNA templates in various cell types.
(§2) In the Xenopus oocyte expression system, oocytes removed from ovaries of adult Xenopus are arrested at the first meiotic prophase. Because each oocyte is fairly large and has a large nucleus, it is technically easy to inject foreign DNA into the oocyte nucleus. Typically, 20-40 nl is injected through a finely drawn glass capillary. The endogenous Xenopus RNA polymerases transcribe this injected exogenous DNA. Mertz and Gurdon, Proc. Natl. Acad. Sci. USA 74:1502 (1977). The exogenous DNA is assembled into chromatin, but there is no replication of injected duplex DNA in the oocyte. Gargilo and Worcel, J. Mol. Biol., 170:699 (1983); Ryoji and Worcel, Cell 37:21 (1984). Single-stranded DNA (e.g., DNA obtained by cloning in M13 vectors), is converted to duplex form within the oocyte nucleus. The Xenopus oocyte also efficiently translates mRNA injected into its cytoplasm.
(§3) Various studies have shown that this Xenopus expression system is feasible for expression of foreign DNA. Kreig and Melton, EMBO J 4:3464 (1985); Masu et al., Nature 329:836 (1987); Wilson et al., Cell 47:589 (1986); see also, Old and Primrose, Principles of Gene Manipulation, 4th ed. (Blackwell Scientific Publications, Oxford, 1989)(pp. 296-302).
(§4) In the system of the present invention, messenger RNA produced from cDNA template, (both messenger RNA and cDNA template are considered to be part of the present invention), is injected into Xenopus eggs which then express the protein. By patch clamp electrophysiology experiments, one can then determine whether the cell is expressing the protein (measured by electrical impulses) and whether this expression can be altered by the compound of interest.
(§5) Currents were recorded in 96 mM NaCl, 2 mM Kcl, 1.8 mM MgCl2, and 5 mM Hepes. Recordings were made 1-5 days after injection. […] Dieldrin was dissolved in DMSO (dimethylsulfoxide), then diluted to a final concentration of 0.1% DMSO. The single base pair substitution of GCG (alanine) to TCG (serine) was introduced into the sensitive cDNA 14.1 by subcloning in a restriction fragment from the insensitive cDNA. The region containing the mutation was then amplified by PCR from total embryonic RNA from Rdl^R-MD flies and subsequently digested with EcoRV and Acc1. This restriction fragment was then cloned into the sensitive cDNA 14.1 cut with the same enzymes to yield the Ala to Ser mutant construct.
(§6) In order to test the effect of the resistance-associated Ala to Ser mutation, this substitution was introduced into the sensitive cDNA (as discussed above). […] Pharmacological comparisons were made using thirty oocytes injected with each type of RNA.

[2] = target: T1, mutant GABA receptor (Ala to Ser mutant Rdl) (Drosophila melanogaster, UniProt P25123, A301S/I283V); test: Two-electrode voltage clamp of Xenopus oocytes expressing Ala to Ser mutant GABA receptor; assay type: cell-based; conditions: for response of mutant channels to GABA and muscimol compared with wild-type channels: Ala to Ser mutant vs wild-type; for sensitivity of Ala>Ser mutant compared with wild-type: thirty oocytes with each type of RNA (FIGS. 10b-e); for Reduction in GABA response (mean (s.d.)): xenopus oocytes
T1 construct: expressed in transfected cells; host or cells: Xenopus oocytes injected with RNA derived from the Ala to Ser mutant of cDNA 14.1
Method: as §1, §2, §3, §4, §5, §6

[3] = tested on: mutant GABA receptor (Ala to Ser mutant Rdl); test: as above; assay type: cell-based, Drosophila melanogaster
Method: as §1, §2, §3, §4, §5, §6

[4] = tested on: cultured Rdl^R-MD neurons; test: Whole cell patch clamp of cultured Rdl^R-MD neurons; assay type: cell-based, Drosophila melanogaster; conditions: PTX
[5] = tested on: PTX binding sites on the GABA receptor; conditions: cyclodiene-resistant vs susceptible strains; Matsumura et al. 1987; cited from earlier work
D. melanogaster [6] = test: Dieldrin contact bioassay, fly mortality in coated vials after 24 hours; assay type: in vivo; conditions: for mortality at 0.03 mg: Drosophila melanogaster, 24 h, 30 μg dieldrin
Method: More specifically, FIG. 2 depicts the crosses used to rescue cyclodiene insecticide susceptibility via P-element-mediated germline transformation. As depicted, embryos containing an endogenous source of transposase (Δ2,3) were injected with a cosmid carrying a susceptible copy of the gene and a copy of the mini-white eye color gene as a selectable marker. Successful G0 transformants with red eyes (w^+) were subsequently crossed into flies hemizygous for resistance and a deficiency uncovering the resistance gene Df(3L)29A6. These flies carrying the w^+ S insert (transferred DNA) are susceptible to a dose of 30 μg dieldrin, whereas their siblings without the insert are resistant to this dose.
In order to more precisely localize the gene within the 200 kb of DNA isolated from the 66F subregion, new chromosomal rearrangements were induced using γ irradiation and screened for those uncovering the resistance gene. Chromosomal rearrangements were generated by exposing male SS flies with multiply marked third chromosomes (rucuca strain) to 4,000 rads of radiation in a γ radiation (cesium) source, and then outcrossing these R/R (Rdl^R /Rdl^R) females. New rearrangements uncovering resistance were screened for by exposing their progeny at a dose of 30 μg dieldrin, at which only R/Df (Rdl^R /Df) flies will survive (all the expected RS progeny will die at this dose level except for any R/- flies wherein "-" is any new rearrangement uncovering the resistance gene), survivors were crossed to In(3LR)TM3/Sb and maintained as a balanced stock (Df/In(3LR)TM3).
Approximately 50,000 flies were screened. For screening, 20 ml glass scintillation vials were coated internally with 30 μg of dieldrin in acetone and rolled until dry. Twenty to thirty flies per vial were added and mortality was recorded after 24 hours at 25° C..
As both of the cytologically visible rearrangements giving two new recombinant bands on a Southern with probes from cosmid 6 have only one breakpoint within 66F, this cluster of breakpoints which disrupts the gene must therefore mark its location. In order to determine whether cosmid 6 contained a functional copy of the gene for cyclodiene resistance, P-element germline transformation with this cosmid was carried out. Following successful isolation of a w^+ transformant, linkage to the insert to the second chromosome was established after crossing male G0 progeny to a stock bearing markers on the second and third chromosomes (FIG. 2). […]
Entomol., 83:1733, (1990). […] These field-collected and isofemale strains were used in the initial identification of the resistance-associated mutation, but studies of linkage to other restriction-site markers in D. melanogaster were done with isochromsomal lines to ensure that only a single chromosome was being analyzed.

D. melanogaster [7] = conditions: 30 μg dieldrin, ffrench-Constant et al. 1990, cited from earlier work
[8] = tested on: larval central nerve cord of Rdl^R-MD; conditions: dieldrin, 10 μM concentration; Bloomquist et al. 1991; cited from earlier work
chloride ion channels = conditions: thiocyanate ions vs chloride; cited from earlier work
[9] = wild-type mRNA, voltage clamped at -60 mV
[10] = read-out: Reduction in GABA response (mean (s.d.))

normal GABA receptor (wild-type Rdl, cDNA 14.1), sequence (P25123 other isoform, or with tags, fused parts or gaps I283V): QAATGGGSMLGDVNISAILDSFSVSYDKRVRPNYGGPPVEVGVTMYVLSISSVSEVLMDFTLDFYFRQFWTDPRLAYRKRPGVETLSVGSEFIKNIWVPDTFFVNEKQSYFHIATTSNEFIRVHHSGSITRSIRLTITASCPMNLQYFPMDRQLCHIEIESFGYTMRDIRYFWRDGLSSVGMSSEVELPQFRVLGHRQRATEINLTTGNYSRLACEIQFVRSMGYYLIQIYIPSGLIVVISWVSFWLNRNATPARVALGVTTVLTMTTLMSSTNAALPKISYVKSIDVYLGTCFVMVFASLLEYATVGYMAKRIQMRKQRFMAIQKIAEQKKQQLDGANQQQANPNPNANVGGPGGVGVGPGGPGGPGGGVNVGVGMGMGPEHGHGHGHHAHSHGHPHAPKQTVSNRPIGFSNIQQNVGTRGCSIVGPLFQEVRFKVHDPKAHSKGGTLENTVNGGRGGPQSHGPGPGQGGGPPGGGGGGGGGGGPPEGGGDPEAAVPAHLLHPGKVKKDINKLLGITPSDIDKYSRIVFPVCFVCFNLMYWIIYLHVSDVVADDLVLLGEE
T1 sequence (P25123 other isoform, or with tags, fused parts or gaps I283V/A301S): as the sequence (P25123 other isoform, or with tags, fused parts or gaps I283V) above, with A257S counted along it

NCCCC(=O)O [GABA, γ-aminobutyric acid]
recovery of response to GABA during washing ([1]; after PTX or dieldrin, washed with saline 20 min, all experiments (wild-type and mutant)): at least 50% | reversal potential of GABA-evoked currents ([1]; wild-type mRNA): -20 to -25 mv | maximum current, lower end of range [1, 9]: 50 nA | maximum current, upper end of range [1, 9]: > 5 μA | response of mutant channels to GABA and muscimol compared with wild-type channels [2]: apparently identical to the wild-type channels

C=C(C)[C@@H]1[C@H]2OC(=O)[C@@H]1[C@]1(O)C[C@H]3O[C@]34C(=O)O[C@H]2[C@]14C [PTX, Picrotoxinin]
inhibition at 1 µM [1, 10]: 73% | inhibition at 10 µM [1, 10]: 96% | inhibition at 50 µM [1, 10]: 96% | inhibition at 1 µM ([1]; read-out: block of the GABA response, 1 μM PTX, wild-type "sensitive" cDNA (FIG. 10b)): > 70% | Reduction in GABA response (mean (s.d.)) ([1]; 1 µM): 78 (12) % | Reduction in GABA response (mean (s.d.)) ([1]; 10 µM): 90 (13) % | Reduction in GABA response (mean (s.d.)) ([1]; 50 µM): 97 (5) % | block of the GABA response, in words ([2]; 1 μM PTX, Ala to Ser mutant (FIG. 10d)): little effect | inhibition at 1 µM [2, 10]: 8% | inhibition at 10 µM [2, 10]: 61% | inhibition at 50 µM [2, 10]: 75% | inhibition at 1 µM ([2]; read-out: Reduction in GABA response (mean (s.d.)), Mutant, 1 μM PTX, oocytes with GABA EC50 […] μM, n = 6): 8% | sensitivity of Ala>Ser mutant compared with wild-type [2]: consistently lower sensitivity | Reduction in GABA response (mean (s.d.)) ([2]; 10 µM): 48 (6) % | Reduction in GABA response (mean (s.d.)) ([2]; 50 µM): 56 (6) % | reduction in sensitivity induced by the mutation ([3]; PTX, mutant vs wild-type oocytes): approximately 100 fold | reduction in sensitivity [4]: approximately 100 fold | affinity for PTX of resistant strains relative to susceptibles [5]: one tenth

C[N+]1(C)CCc2cc3c(cc2[C@H]1[C@@H]1OC(=O)c2c1ccc1c2OCO1)OCO3 [bicuculline, (-)-bicuculline methiodide]
block of GABA-evoked currents by bicuculline ([1]; bicuculline 100 μM with 10 μM GABA (FIG. 10a)): not blocked

ClC1=C(Cl)[C@]2(Cl)[C@@H]3[C@@H]4C[C@@H]([C@H]5O[C@@H]45)[C@@H]3[C@@]1(Cl)C2(Cl)Cl [dieldrin]
solubility ([1]; dissolved in DMSO, diluted to final 0.1% DMSO, concentration above 10 μM not possible): limited solubility | inhibition at 10 µM [1, 10]: 78% | inhibition at 10 µM ([1]; read-out: block of the GABA response, 10 μM dieldrin, wild-type "sensitive" cDNA (FIG. 10c)): > 75% | Reduction in GABA response (mean (s.d.)) ([1]; 10 µM): 80 (6) % | block of the GABA response, in words ([2]; […] μM dieldrin, insensitive mutant cDNA (FIG. 10e)): little effect | sensitivity of expressed chloride ion channels carrying the Ala to Ser mutation ([2]; mutation of resistant D. melanogaster): insensitivity | inhibition at 10 µM [2, 10]: 23% | sensitivity of Ala>Ser mutant compared with wild-type [2]: consistently lower sensitivity | Reduction in GABA response (mean (s.d.)) ([2]; 10 µM): 12 (11) % | loss of sensitivity conferred by the mutation ([3]; dieldrin, from comparison of effects of lower doses): 50-100 fold | mortality at 0.03 mg (D. melanogaster [6]; flies carrying the cosmid 6 insert (Rdl^R/Rdl^S), n=221): 93% | mortality at 0.03 mg (D. melanogaster [6]; siblings without the insert (Rdl^R/Df(3L)29A6), n=214): 7% | susceptibility to 30 μg dieldrin, in words (D. melanogaster [6]; flies carrying the w+ S insert): susceptible | susceptibility to 30 μg dieldrin, in words (D. melanogaster [6]; siblings without the insert): resistant | survival of RR flies (D. melanogaster [7]; RR flies): 85% | kill of RS and SS genotypes (D. melanogaster [7]; RS and SS flies): kills all RS and SS genotypes | sensitivity of larval central nerve cord of Rdl^R-MD [8]: Insensitivity

NCc1cc(=O)[nH]o1 [muscimol, muscimol hydrobromide]
response of mutant channels to GABA and muscimol compared with wild-type channels [2]: apparently identical to the wild-type channels

N#CS [thiocyanate]
permeation through chloride ion channels relative to chloride (chloride ion channels): seven
